Experimental data published in the CheMixHub ionic liquid set.

Assay: xn = mol fraction of the nth substance listed
Details: 101 kPa

CN(CCO)CCO + CCCC[n+]1ccn(C)c1.F[B-](F)(F)F + O
viscosity [mPa·s]
Details | 293.15 K | 303.15 K | 313.15 K | 323.15 K | 333.15 K
x2 = 0.0987, x1 = 0.7994 | 86.7 | 48.2 | 28.8 | 18.4 | 12.32
x2 = 0.0989, x1 = 0.623 | 77.4 | 43.7 | 26.1 | 16.6 | 11.12
x2 = 0.0991, x1 = 0.4459 | 59.2 | 33.7 | 20.4 | 13.16 | 8.94
x2 = 0.0993, x1 = 0.2681 | 32.9 | 19.2 | 12.08 | 8.13 | 5.78
x2 = 0.0995, x1 = 0.0895 | 8.59 | 5.78 | 4.14 | 3.11 | 2.41
x2 = 0.1972, x1 = 0.7097 | 77.7 | 43.1 | 26 | 16.8 | 11.42
x2 = 0.1978, x1 = 0.5528 | 67.4 | 37.3 | 22.6 | 14.63 | 9.99
x2 = 0.1979, x1 = 0.3957 | 50.3 | 28.3 | 17.5 | 11.53 | 8.07
x2 = 0.1982, x1 = 0.2378 | 28.6 | 17 | 11.04 | 7.72 | 5.63
x2 = 0.1986, x1 = 0.0794 | 10.66 | 7.28 | 5.26 | 3.98 | 3.12
x2 = 0.2954, x1 = 0.6203 | 72.6 | 40.5 | 24.7 | 16.15 | 11.16
x2 = 0.2959, x1 = 0.4832 | 60.5 | 34.2 | 21.1 | 13.97 | 9.79
x2 = 0.2963, x1 = 0.3457 | 45 | 26.1 | 16.5 | 11.2 | 8.04
x2 = 0.2968, x1 = 0.2077 | 27.8 | 17.2 | 11.44 | 8.18 | 6.09
x2 = 0.2972, x1 = 0.0694 | 13.16 | 9.12 | 6.68 | 5.08 | 4
x2 = 0.3934, x1 = 0.531 | 68.7 | 39.1 | 24.3 | 16.14 | 11.32
x2 = 0.3939, x1 = 0.4136 | 56.5 | 32.9 | 20.8 | 14.05 | 10.02
x2 = 0.3944, x1 = 0.2958 | 43 | 25.9 | 16.8 | 11.65 | 8.49
x2 = 0.395, x1 = 0.1777 | 28.8 | 18.3 | 12.49 | 8.99 | 6.8
x2 = 0.3955, x1 = 0.0593 | 16.8 | 11.66 | 8.53 | 6.54 | 5.13
x2 = 0.4912, x1 = 0.442 | 66.5 | 38.9 | 24.6 | 16.7 | 11.88
x2 = 0.4917, x1 = 0.3442 | 57.5 | 34.4 | 21.8 | 14.94 | 10.7
x2 = 0.4923, x1 = 0.2461 | 44.3 | 27.4 | 18.2 | 12.72 | 9.42
x2 = 0.493, x1 = 0.1478 | 32.9 | 21.3 | 14.71 | 10.66 | 8.1
x2 = 0.4934, x1 = 0.0493 | 22.1 | 15.2 | 10.99 | 8.33 | 6.54
x2 = 0.5887, x1 = 0.3532 | 69.7 | 41.6 | 26.2 | 17.9 | 12.88
x2 = 0.5893, x1 = 0.275 | 60 | 37.1 | 23.5 | 16.3 | 11.86
x2 = 0.5898, x1 = 0.1966 | 49.1 | 30.6 | 20.7 | 14.67 | 10.75
x2 = 0.5903, x1 = 0.118 | 39.4 | 25.6 | 17.7 | 12.8 | 9.64
x2 = 0.5909, x1 = 0.0394 | 29.3 | 20 | 14.32 | 10.68 | 8.29
x2 = 0.6861, x1 = 0.2646 | 74.6 | 45.2 | 28.8 | 19.8 | 14.34
x2 = 0.6866, x1 = 0.2059 | 66.4 | 41 | 26.5 | 18.5 | 13.45
x2 = 0.687, x1 = 0.1472 | 57.5 | 35.8 | 24.1 | 17.1 | 12.65
x2 = 0.6874, x1 = 0.0884 | 47.3 | 30.3 | 20.9 | 15.08 | 11.36
x2 = 0.6877, x1 = 0.0295 | 40.3 | 26.6 | 18.8 | 13.79 | 10.55
x2 = 0.7831, x1 = 0.1762 | 84.7 | 51.6 | 32.9 | 22.7 | 16.5
x2 = 0.7836, x1 = 0.1371 | 78.6 | 48.6 | 31.5 | 22 | 16.01
x2 = 0.7839, x1 = 0.0979 | 72.2 | 44.8 | 29.8 | 20.9 | 15.35
x2 = 0.7842, x1 = 0.0588 | 65.6 | 41.8 | 28.1 | 20 | 14.73
x2 = 0.7845, x1 = 0.0196 | 56.4 | 36.7 | 25 | 18 | 13.44
x2 = 0.8801, x1 = 0.0879 | 102 | 62.1 | 40.3 | 27.1 | 19.5
x2 = 0.8804, x1 = 0.0684 | 99.2 | 60.7 | 39.7 | 26.8 | 19.3
x2 = 0.8805, x1 = 0.0294 | 90.7 | 56.4 | 37.2 | 25.5 | 18.5
x2 = 0.8806, x1 = 0.0098 | 80.9 | 50.9 | 33.8 | 23.7 | 17.3
x2 = 0.8806, x1 = 0.0488 | 94.5 | 58.3 | 38.5 | 26.1 | 18.9
